According to patent publication US20180346995A1, “Process for Exploiting Synthetic Lethality Based on OverExpression of MYC Oncogene” (priority 2017, published 2018):

What was measured:
[1] = system: IMR-90 cells expressing MycER; experiment: Cell death on acute activation of MYC (MycER + 4-OHT), IMR-90; assay type: cell-based, human; conditions: IMR-90 MycER, 3 days; for cell death, agent alone: single agent
Procedure: (§1) Cell viability was determined by the trypan blue exclusion assay. Each column represents the average of 3 independent experiments, and each experiment was done in triplicate. Error bars represent one standard deviation. FIG. 1(B) illustrates the cytotoxicity of H-1152 for normal cells and a MYC-overexpressing human cancer cell line IM-9. H-1152 was applied to the indicated cells at 6 μM for 3 days. Cell viability, was determined by the trypan blue exclusion assay. A representative experiment is shown. […] Rat1A cells harboring either an empty vector or various indicated oncogenes were treated with either 0.1% DMSO or 6 μM H-1152 for 3 days. Cell viability was determined by the trypan blue exclusion assay. Each column represents the average of 3 independent experiments, and each experiment was done in triplicate. Error bars represent one standard deviation. […] Rat (Rat1A) or human (HA1E and IMR-90) cells expressing either MycER or MycNER were incubated with or without 6 μM H-1152 and/or 200 nM 4-OHT for 3 days. Cell viability was determined by the trypan blue exclusion assay. A representative experiment is shown.
(§2) In order to negate the possibility that sustained expression of MYC gene has given rise to unidentified targets affected by H-1152, sensitivity of H-1152 in acutely activated cells was measured. Acute activation of MYC was exploited by means of a MYC-estrogen receptor chimera. This receptor is rapidly activated by the addition of 4-hydroxy-tamoxifen (“4-OH”). […] FIG. 1D. A similar experiment was conducted with acute activation of the MYCN gene. MYCN shares high sequence similarity and crucial biochemical and genetic activities with MYC. […] Accordingly, H-1152 elicits MYC-dependent cell lethality irrespective of whether MYC is constitutively expressed or acutely activated. Furthermore, this sensitivity holds true for both fibroblasts cells and epithelial cells.

[2] = system: HA1E cells expressing MycER; experiment: Cell death on acute activation of MYC (MycER + 4-OHT), HA1E; assay type: cell-based, human; conditions: 3 days; for cell death, agent alone: single agent
Procedure: as §1, §2

[3] = system: NCI-H211 xenograft tumors; experiment: Xenograft tumor growth in athymic mice, NCI-H211; assay type: in vivo; conditions: Myc^low NCI-H211, 60 mg/kg oral gavage twice a day
From the text: (§3) FIG. 7. illustrates how H-1152 elicits therapeutic efficacy against tumorigenesis of cancer cells that overexpress MYC. […] Extracts from four human cancer cell lines (1. NCI-H524, 2. NCI-H841, 3. NCI-H211, 4. NCI-H2199) were blotted for MYC and tubulin by Western blotting. […] See Appendix D for Method of Mouse In Vivo Assay. Two Myc^high cell lines and two Myc^low cell lines were implanted subcutaneously into athymic mice (One to ten millions of cells per injection). When tumors reached approximately 50-70 mm^3, tumor-bearing mice were randomized to receive oral gavage with either vehicle of H-1152 (60 mg/kg body weight per injection) twice a day until the endpoint. The tumor volume was determined at the indicated time points.
(§4) To determine whether tissue culture results can be replicated in vivo, two cell lines from Myc^High group, namely NCI-H841 and NCI-H524, and two cell lines from Myc^low group, namely NCI-H211 and NCI-H2199. […]
(§5) Experimental mice are housed and treated according to the protocol approved by the Institutional Animal Care and Use Committee of MBICR. […] Tumor diameter at injection sites are monitored at the indicated time points with a digital caliper and the volume calculated using the formula: V (mm3)=A×B×B/2, where A and B represent the largest and smallest diameters of the tumor respectively.

[4] = system: normal cells and immortalized cells; experiment: Trypan blue exclusion cell viability assay in normal and immortalized cells; assay type: cell-based; conditions: 6 μM, 3 days
Procedure: as §1
(§6) The result after 3-days treatment were similar. […] The one observed exception is the IM-9 cells that overexpress MYC. Cell lethality in the IM-9 cell line was approximately 30% after H-1152 treatment for 3 days. FIG. 1B.

[5] = system: NCI-H841 xenograft tumors; experiment: Xenograft tumor growth in athymic mice, NCI-H841; assay type: in vivo; conditions: Myc^high NCI-H841, 60 mg/kg oral gavage twice a day
From the text: as §3, §4, §5

[6] = system: Myc^low human cancer cell lines; experiment: Cytotoxicity in Myc^low human cancer cell lines (trypan blue); assay type: cell-based; conditions: Myc^low group, 6 μM, 4 days
Procedure: (§7) FIG. 5. illustrates that MYC abundance is a univariate predicator of the response of human tumor cell lines to H-1152 by showing the cytotoxicity of H-1152 for 75 human cancer cell lines. Cell lines in the Myc^high group and the Myc^low group were treated for four days with either 0.1% DMSO or 6 μM H-1152. Cell viability was then determined by the trypan blue exclusion assay. FIG. 5(A) is a histogram representing the average of two independent experiments. […] Results are presented as the percentage of dead cells in the presence of H-1152 minus that in the presence of DMSO. Red, yellow and green dots represent cell lines with abundant Myc, MycN and L-Myc respectively. Comparison of the two data sets with two-sided Mann-Whitney test indicates p<0.0001.
(§8) The Myc^high group also includes 8 cell lines with abundant MycN expression and 3 cell lines abundantly expressing L-Myc. […] (FIG. 5 A, B). The difference between the two data sets was statistically significant.

[7] = system: RPE-MYC cells; experiment: Trypan blue exclusion cell viability assay in RPE-MYC cells; assay type: cell-based, human; conditions: 72 hours
Procedure: as §1
FIG. 3(B) illustrates how H-1152, but not other inhibitors of ROCK kinases, preferentially kills RPE-MYC cells. […] Cell viability was determined by the trypan blue exclusion assay. […]

[8] = system: RPE-MYC cells; experiment: Apoptosis assays (immunofluorescence, Mitotracker) in RPE-MYC cells; assay type: cell-based, human; conditions: 6 μM
Procedure: RPE-MYC cells were exposed to 6 μM H-1152 for 48 hours and then incubated for 30 minutes with 40 nM MITOTRACKER Red (Molecular Probes) and fixed. Fixed cells were stained for DNA with DAPI (in blue) and then analyzed with a confocal laser microscope. Arrowheads indicate apoptotic nuclei. Scale bar, 10 μm. See Appendix A—for Immunofluorescence Microscopy method. […] RPE-MYC and RPE-NEO cells were treated with 0.1% DMSO or 6 μM H-1152 for 3 days and then subjected to the indicated assays. Each column represents the average of 3 independent experiments, and each experiment was done in triplicate. Error bars represent one standard deviation.
FIG. 2B. […] FIB 2A. […]
Cells are cultured on coverslips in a 6-well plate, fixed with 4% paraformaldehyde or 4% paraformaldehyde followed with methanol treatment, and then permeabilized with 0.3% Triton X-100. […] Primary antibodies are detected with Texas red-conjugated or fluorescein isothiocyanate-conjugated secondary antibodies that may be purchased from Jackson ImmunoResearch. […]
For determination of mitochondrial membrane potential, cells are cultured on cover slips and exposed for 30 min at 37° C. with 40 nM Mitotracker# Red CMXRos (Molecular Probes), a dye that accumulates in mitochondria as a function of the mitochondrial potential. […] For fluorescence detection, an EVOS FL auto microscope (THERMO FISHER) can be used.

[9] = system: NCI-H524 xenograft tumors; experiment: Xenograft tumor growth in athymic mice, NCI-H524; assay type: in vivo; conditions: Myc^high NCI-H524, 60 mg/kg oral gavage twice a day
From the text: as §3, §4, §5

[10] = system: Myc^high human cancer cell lines; experiment: Cytotoxicity in Myc^high human cancer cell lines (trypan blue); assay type: cell-based; conditions: 6 μM, 4 days
Procedure: as §7, §8

[11] = system: Rat1A cells expressing MYC or other oncogenes; experiment: Trypan blue exclusion cell viability assay in Rat1A cells harboring various oncogenes; assay type: cell-based, rat; conditions: 6 μM, 3 days
Procedure: as §1
To determine whether cytotoxicity by H-1152 is dependent on MYC-expression or any oncogene, rat 1A cells expressing MYC as well as other active cellular oncogenes were evaluated for lethality. […] FIG. 1C.

[12] = system: RPE-NEO cells; experiment: Trypan blue exclusion cell viability assay in RPE-NEO cells; assay type: cell-based, human; conditions: 6 μM H-1152, 3 days
Procedure: as §1
In order to confirm that H-1152 elicits cytotoxicity in cells overexpressing MYC, human retinal pigment epithelial cells were stably transfected with either MYC or a Neomycin selection marker gene (“NEO”) in combination with hTERT. […]

[13] = system: NCI-H2199 xenograft tumors; experiment: Xenograft tumor growth in athymic mice, NCI-H2199; assay type: in vivo; conditions: Myc^low NCI-H2199, 60 mg/kg oral gavage twice a day
From the text: as §3, §4, §5

[14] = system: IM-9 cells; experiment: Trypan blue exclusion cell viability assay in IM-9 cells; assay type: cell-based, human; conditions: IM-9, 6 μM, 3 days
Procedure: as §1, §6

[15] = system: cells expressing MYCN-estrogen receptor chimera; experiment: Cell death on acute activation of MYCN (MycNER + 4-OHT); assay type: cell-based; conditions: MYCN-ER activated with 4-OHT, H-1152 application
Procedure: as §1
In order to negate the possibility that sustained expression of MYC gene has given rise to unidentified targets affected by H-1152, sensitivity of H-1152 in acutely activated cells was measured. Acute activation of MYC was exploited by means of a MYC-estrogen receptor chimera. […]

[16] = molecular target: ROCKII (Homo sapiens, UniProt O75116); conditions: cited from earlier work
[17] = 6 μM H-1152 together with 200 nM 4-OHT

Sequence of ROCKII (O75116 whole entry, species assumed): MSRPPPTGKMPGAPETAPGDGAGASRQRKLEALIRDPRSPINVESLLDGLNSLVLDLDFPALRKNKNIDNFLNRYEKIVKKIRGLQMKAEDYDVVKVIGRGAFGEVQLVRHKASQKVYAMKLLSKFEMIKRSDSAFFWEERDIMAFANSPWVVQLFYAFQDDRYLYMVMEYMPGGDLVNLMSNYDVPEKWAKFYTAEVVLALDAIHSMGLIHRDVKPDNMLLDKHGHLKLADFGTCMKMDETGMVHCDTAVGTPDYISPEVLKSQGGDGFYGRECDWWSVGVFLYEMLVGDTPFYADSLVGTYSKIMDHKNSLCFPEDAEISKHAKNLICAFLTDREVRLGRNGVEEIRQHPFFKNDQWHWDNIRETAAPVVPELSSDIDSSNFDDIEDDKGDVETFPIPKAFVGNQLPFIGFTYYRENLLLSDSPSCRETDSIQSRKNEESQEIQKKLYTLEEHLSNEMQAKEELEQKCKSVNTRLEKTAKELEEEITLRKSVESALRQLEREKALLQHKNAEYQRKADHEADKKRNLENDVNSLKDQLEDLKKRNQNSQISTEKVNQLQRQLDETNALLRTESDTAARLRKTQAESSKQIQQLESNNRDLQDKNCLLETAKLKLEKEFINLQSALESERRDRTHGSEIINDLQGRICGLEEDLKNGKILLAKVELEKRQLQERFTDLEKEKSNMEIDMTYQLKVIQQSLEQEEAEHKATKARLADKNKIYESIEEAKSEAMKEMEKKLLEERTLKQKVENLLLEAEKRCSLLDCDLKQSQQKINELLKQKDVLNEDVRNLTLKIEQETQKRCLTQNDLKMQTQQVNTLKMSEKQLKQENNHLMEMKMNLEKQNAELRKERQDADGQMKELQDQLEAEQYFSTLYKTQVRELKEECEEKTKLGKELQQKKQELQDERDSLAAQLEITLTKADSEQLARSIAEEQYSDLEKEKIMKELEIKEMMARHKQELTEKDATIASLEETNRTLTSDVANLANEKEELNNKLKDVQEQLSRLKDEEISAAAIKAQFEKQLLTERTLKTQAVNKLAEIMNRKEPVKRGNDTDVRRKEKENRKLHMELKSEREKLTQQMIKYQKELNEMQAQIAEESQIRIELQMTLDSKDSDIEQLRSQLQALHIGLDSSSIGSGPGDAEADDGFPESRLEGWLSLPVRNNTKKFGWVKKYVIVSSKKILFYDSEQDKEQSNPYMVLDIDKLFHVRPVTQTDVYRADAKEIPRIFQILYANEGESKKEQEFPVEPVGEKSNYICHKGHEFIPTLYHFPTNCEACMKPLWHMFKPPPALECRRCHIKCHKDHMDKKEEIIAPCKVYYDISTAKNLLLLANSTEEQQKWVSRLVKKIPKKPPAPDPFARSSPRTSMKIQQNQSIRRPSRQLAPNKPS

Molecule: 4-hydroxy-tamoxifen [4-OH]
- cell death, agent alone [1]: low levels of cell death
- cell death, agent alone [2]: low levels of cell death

Molecule: Cc1cncc2cccc(S(=O)(=O)N3CCCNC[C@@H]3C)c12 [H-1152, dimethylfasudil]
- cell lethality [1, 17]: over 30%
- cell death, agent alone [1]: low levels of cell death
- tumor development [3]: failed to impact tumor development
- cell toxicity [4]: negligible effect on cell toxicity
- tumor development [5]: slowed down tumor development
- cell lines sensitive to H-1152 [6]: 3 of 24
- cell lethality ([7]; 6 μM H-1152 + 100 μM z-VAD-fmk): 15%
- cell death in comparison of ROCK inhibitors [7]: significant cell death
- mitochondria-dependent apoptosis pathway events (membrane potential, cytochrome C release, caspase 9) ([8]; 48 hours): cell death via activation of the mitochondria-dependent apoptosis pathway
- apoptotic features (nuclear condensation, caspase 3 activation, PARP cleavage) ([8]; 3 days): Symptoms of classical apoptosis were recorded
- tumor development [9]: stabilized tumor development
- cell death across cell lines, Myc^high versus Myc^low [10]: massive cell death in a much higher percentage of cell lines in the Myc^high group
- cell lines that failed to undergo apoptosis ([10]; Myc^high group): 11 of the 51
- cell lethality [2, 17]: over 30%
- cell death, agent alone [2]: low levels of cell death
- cell death among cells with various active oncogenes [11]: only MYC expressing cells demonstrated cell death
- cells killed [12]: none
- tumor development [13]: failed to impact tumor development
- cell lethality [14]: approximately 30%
- cell lethality [15]: high cell lethality

Molecule: C[C@H]1CNCCCN1S(=O)(=O)c1cccc2cncc(F)c12 [Rapasudil]
- IC50 [16]: 19 nM
